Experimental data published in patent US9260439B2, “Dihydropyrrolopyrimidine derivatives” (PFIZER INC., priority 2014, dated 2016).

Molecular target: truncated PI3Kα (p110α/iSH2 p85α) (Homo sapiens (Human), UniProt P42336)
Assay: PI3KA_Act fluorescence polarization kinase assay (Ki)
Assay type: biochemical
Conditions: 1 mM ATP
From the text: 2) p110α-iSH2 p85α Complex (Full Length p110α and p85α iSH2)(“PI3KA_Act”)
Genes encoding for full length p110α and p85α nSH-iSH2=niSH2 (p85a aminoacids 322-600) subunits of PI3Kα complex were subcloned from existing constructs into pFASTBAC Dual vector (Life Technologies, Carlsbad, Calif.) using standard cloning procedures. Gene encoding p110α subunit was subcloned into polyhedrine promoter while gene encoding p85α niSH2 domains was subcloned into p10 promoter. Additionally, Human Rhinovirus 3C Protease (“HRV 3C”) site was introduced between nSH2 and iSH2, replacing aminoacids 431-438 of p85α with […] HRV 3C recognition sequence, using standard QuickChange mutagenesis protocol (Agilent Technologies, CA). Recombinant baculovirus was generated using Bac-to-Bac protocol (Life Technologies, Carlsbad, Calif.). Large scale expression was conducted in Sf21 (Life Technologies, Carlsbad, Calif.) cells at a multiplicity of infection (“MOI”)=1 for 48 hours. Cells were lyzed in 50 mM Tris pH 8.0, 250 mM NaCl, 5% glycerol, 0.25 mM TCEP, and 20 mM imidazole. The p110α-niSH2 p85α complex was purified from clarified supernatant using Immobilized Metalo Affinity Chromatography (“IMAC”). The protein was eluted from the column using 50 mM Tris pH 8.0, 200 mM NaCl, 0.25 mM TCEP, and 200 mM imidazole. Following elution p110α-niSH2 p85α complex was dialyzed against 4 liters of 50 mM Tris pH 8.0, 200 mM NaCl, 0.25 mM TCEP, and 40 mM imidazole in the presence of PreScission Protease (1:70 molar ratio of Protease to Protein) and TEV protease (1:40 molar ratio protease to protein) for 16 hours at 4° C. The protein was further purified using reverse IMAC to remove cleaved histidine tag and contaminants captured during initial IMAC purification. The mixture of p110α-iSH2 p85α complex and cleaved nSH2 was recovered in reverse IMAC 40 mM imidazole flow through and 60 mM imidazole wash fractions. Those fractions were pulled together and loaded on Superdex 200 26/60 SEC column equilibrated in 25 mM Tris, pH 8.0, 100 mM NaCl, 2% glycerol, and 2 mM TCEP. Following SEC, chromatography peak fractions containing p110α-iSH2 p85α complex were pulled and concentrated to 4.3 mg/mL. Purity and integrity of the complex was confirmed using LCMS, analytical SEC and SDS-PAGE (sodium dodecyl sulfate polyacrylamide gel electrophoresis) analysis.
The biochemical assays of kinase activity of full-length PI3Kα (full-length p110α/p85a) or truncated PI3Kα (p110α/iSH2 p85a) were conducted using a fluorescence polarization format similar to the procedure of Yuan J., et al., (2011) “PF-04691502, a Potent and Selective Oral Inhibitor of PI3K and mTOR Kinases with Antitumor Activity”, Mol Cancer Ther. 10, 2189-2199. The enzymatic reactions were conducted in 50 μL volumes in 96-well plates. The reactions contained human recombinant PI3Kα (2 nM full-length p110α/p85α or 0.5 nM p110α/iSH2 p85) and 30 μM phosphatidylinositol 4,5-bisphosphate (“PIP2”) (Cayman Chemical Company, Ann Arbor, Mich.) and were sonicated for 1 minute prior to adding PI3Kα enzyme (PI3KA_Act or PI3KA_FL), DMSO or test compound (12-point 3-fold serial dilution, 3 μM top dose, 2° A) DMSO final concentration), 5 mM MgCl2, 50 mM HEPES pH 7.4, 150 mM NaCl, 1 mM DTT ((2S,3S)-1,4-bis(sulfanyl)butane-2,3-diol), and 0.05% 3-[(3-cholamidopropyl)dimethylammonio]-1-propanesulfonate (“CHAPS”). […] The reactions were incubated for 30 min at room temperature, stopped with EDTA pH 8 (10 mM final concentration). In a detection plate, 15 μL of detector/probe mixture, containing 480 nM GST-Grp1 PH domain protein (University of Dundee, Dundee, UK) and 12 nM carboxytetramethylrhodamine (“TAMRA”)-tagged fluorescent phosphatidylinositol (3,4,5)-triphosphate (“PIP3”) (Echelon Biosciences, Inc., Salt Lake City, Utah) in assay buffer, was mixed with 15 μL of kinase reaction mixture. The plate was shaken for 30 minutes and fluorescence polarization values were measured on an LJL Analyst HT plate reader (Molecular Devices, Sunnyvale, Calif.). […]

truncated PI3Kα (p110α/iSH2 p85α), sequence (P42336 whole entry, the tested form may be a part): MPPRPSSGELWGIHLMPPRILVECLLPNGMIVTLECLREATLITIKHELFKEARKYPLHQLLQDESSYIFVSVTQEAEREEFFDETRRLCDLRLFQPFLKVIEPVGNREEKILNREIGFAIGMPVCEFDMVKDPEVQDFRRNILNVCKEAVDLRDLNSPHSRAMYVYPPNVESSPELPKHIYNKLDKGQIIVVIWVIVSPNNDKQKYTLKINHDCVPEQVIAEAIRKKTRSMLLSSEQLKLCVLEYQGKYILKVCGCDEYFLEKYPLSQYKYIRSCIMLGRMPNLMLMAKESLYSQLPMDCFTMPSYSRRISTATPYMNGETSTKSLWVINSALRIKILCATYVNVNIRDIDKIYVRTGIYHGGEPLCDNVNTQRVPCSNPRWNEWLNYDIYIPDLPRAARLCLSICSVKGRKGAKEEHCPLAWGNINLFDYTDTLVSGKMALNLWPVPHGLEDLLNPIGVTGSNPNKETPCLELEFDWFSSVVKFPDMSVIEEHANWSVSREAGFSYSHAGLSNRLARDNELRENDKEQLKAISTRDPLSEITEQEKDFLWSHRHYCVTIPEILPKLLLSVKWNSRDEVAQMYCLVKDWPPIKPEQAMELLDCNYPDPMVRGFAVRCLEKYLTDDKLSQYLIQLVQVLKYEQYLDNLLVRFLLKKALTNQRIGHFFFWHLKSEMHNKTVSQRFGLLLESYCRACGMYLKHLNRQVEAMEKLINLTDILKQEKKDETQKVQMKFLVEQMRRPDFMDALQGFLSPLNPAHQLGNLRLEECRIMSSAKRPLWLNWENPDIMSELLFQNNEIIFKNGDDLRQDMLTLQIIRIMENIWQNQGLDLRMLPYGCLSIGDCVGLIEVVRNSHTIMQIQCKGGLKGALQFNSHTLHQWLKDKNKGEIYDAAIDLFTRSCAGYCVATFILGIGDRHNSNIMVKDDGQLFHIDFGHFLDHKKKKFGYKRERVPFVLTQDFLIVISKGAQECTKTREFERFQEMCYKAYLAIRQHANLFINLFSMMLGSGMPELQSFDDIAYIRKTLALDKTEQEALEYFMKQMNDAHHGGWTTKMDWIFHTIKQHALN

Point of comparison: `COC(=O)N1CC[C@](C)(N2CCc3c(-c4cnc(N)nc4)nc(N4CCOCC4)nc32)C1` [Example 213], “PI3KA_Act Ki” value 0.030 nM. Against it:
- Cn1cnc(S(=O)(=O)N2CC(N3CCc4c(-c5cnc(N)nc5)nc(N5CCOCC5)nc43)C2)c1 [Example 179] — 11-fold higher, 0.344 nM
- CP(C)(=O)N1CC[C@@H](N2CCc3c(-c4cnc(N)nc4)nc(N4CCOCC4)nc32)C1 [Example 180] — 59-fold higher, 1.759 nM
- CP(C)(=O)N1CC[C@H](N2CCc3c(-c4cnc(N)nc4)nc(N4CCOCC4)nc32)C1 [Example 181] — 9.9-fold higher, 0.296 nM
- C[C@H](O)COC(=O)N1CC(N2CCc3c(-c4cnc(N)nc4)nc(N4CCOC[C@@H]4C)nc32)C1 [Example 182] — 12-fold higher, 0.357 nM
- CC(C)(CO)N1CCc2c(-c3cnc(N)nc3)nc(N3CCOCC3)nc21 [Example 183] — 13-fold higher, 0.393 nM
- CCC(C)(C)N1CCc2c(-c3cnc(N)nc3)nc(N3CCOCC3)nc21 [Example 184] — 22-fold higher, 0.647 nM
- C[C@@H](O)COC(=O)N1CC(N2CCc3c(-c4cnc(N)nc4)nc(N4CCOCC4)nc32)C1 [Example 185] — 6.1-fold higher, 0.182 nM
- C[C@@H](O)COC(=O)N1CC(N2CCc3c(-c4cnc(N)nc4)nc(N4CCOC[C@@H]4C)nc32)C1 [Example 186] — 9.1-fold higher, 0.274 nM
- CCCC(C)(C)N1CCc2c(-c3cnc(N)nc3)nc(N3CCOCC3)nc21 [Example 187] — 28-fold higher, 0.839 nM
- COCC(C)(C)N1CCc2c(-c3cnc(N)nc3)nc(N3CCOCC3)nc21 [Example 188] — 21-fold higher, 0.642 nM
- CP(C)(=O)N1CC(N2CCc3c(-c4cnc(N)nc4)nc(N4CCOCC4)nc32)C1 [Example 189] — 39-fold higher, 1.162 nM
- CNS(=O)(=O)N1CC(C)(N2CCc3c(-c4cnc(N)nc4)nc(N4CCOCC4)nc32)C1 [Example 190] — within 1.5-fold, 0.040 nM
- CC(C)(CNS(C)(=O)=O)N1CCc2c(-c3cnc(N)nc3)nc(N3CCOCC3)nc21 [Example 191] — 29-fold higher, 0.881 nM
- C[C@@]1(N2CCc3c(-c4cnc(N)nc4)nc(N4CCOCC4)nc32)CCN(S(N)(=O)=O)C1 [Example 192] — 1.8-fold higher, 0.053 nM
- CC(C)(C)OC(=O)N1CC[C@@](C)(N2CCc3c(-c4cnc(N)nc4)nc(N4CCOCC4)nc32)C1 [Example 195] — 5.5-fold higher, 0.166 nM
- CCS(=O)(=O)N1CC(C)(N2CCc3c(-c4cnc(N)nc4)nc(N4CCOCC4)nc32)C1 [Example 196] — within 1.5-fold, 0.024 nM
- CC1(N2CCc3c(-c4cnc(N)nc4)nc(N4CCOCC4)nc32)CN(S(=O)(=O)C2CC2)C1 [Example 197] — within 1.5-fold, 0.040 nM
- CC(C)S(=O)(=O)N1CC(C)(N2CCc3c(-c4cnc(N)nc4)nc(N4CCOCC4)nc32)C1 [Example 198] — within 1.5-fold, 0.024 nM
- CC1(N2CCc3c(-c4cnc(N)nc4)nc(N4CCOCC4)nc32)CNC1 [Example 199] — 5-fold higher, 0.151 nM
- CCOC(=O)C(C)(C)N1CCc2c(-c3cnc(N)nc3)nc(N3CCOC[C@@H]3C)nc21 [Example 200] — 30-fold higher, 0.909 nM
- COCCC(=O)N1CC(N2CCc3c(-c4cnc(N)nc4)nc(N4CCOC[C@@H]4C)nc32)C1 [Example 202] — 35-fold higher, 1.037 nM
- CCS(=O)(=O)N1CC(C)(N2CCc3c(-c4cnc(N)nc4)nc(N4CCOC[C@@H]4C)nc32)C1 [Example 203] — within 1.5-fold, 0.032 nM
- C[C@H]1COCCN1c1nc(-c2cnc(N)nc2)c2c(n1)N(C1(C)CN(S(=O)(=O)C3CC3)C1)CC2 [Example 205] — within 1.5-fold, 0.021 nM
- C[C@H]1COCCN1c1nc(-c2cnc(N)nc2)c2c(n1)N(C1(C)CN(S(C)(=O)=O)C1)CC2 [Example 206] — within 1.5-fold, 0.031 nM
- C[C@H]1COCCN1c1nc(-c2cnc(N)nc2)c2c(n1)N(C1CN(S(=O)(=O)C3CN(C(=O)OC(C)(C)C)C3)C1)CC2 [Example 207] — 3.3-fold higher, 0.100 nM
- CC1(N2CCc3c(-c4cnc(N)nc4)nc(N4CCOCC4)nc32)CN(S(N)(=O)=O)C1 [Example 208] — 2.1-fold higher, 0.062 nM
- CC1(N2CCc3c(-c4cnc(N)nc4)nc(N4CCOCC4)nc32)CN(S(C)(=O)=O)C1 [Example 209] — 1.5-fold higher, 0.045 nM
- CC(=O)NCC(=O)N1CC(N2CCc3c(-c4cnc(N)nc4)nc(N4CCOCC4)nc32)C1 [Example 210] — 30-fold higher, 0.898 nM
- CC(=O)N1CC[C@@](C)(N2CCc3c(-c4cnc(N)nc4)nc(N4CCOCC4)nc32)C1 [Example 211] — 2.6-fold higher, 0.078 nM
- CC(C)C(=O)NCC(=O)N1CC(N2CCc3c(-c4cnc(N)nc4)nc(N4CCOC[C@@H]4C)nc32)C1 [Example 212] — 18-fold higher, 0.534 nM
- COC(=O)N1CC[C@@](C)(N2CCc3c(-c4cnc(N)nc4)nc(N4CCOCC4)nc32)C1 [Example 214] — 4.3-fold higher, 0.128 nM
- C[C@@]1(N2CCc3c(-c4cnc(N)nc4)nc(N4CCOCC4)nc32)CCNC1 [Example 215] — 16-fold higher, 0.476 nM
- CNC(=O)N1CC[C@](C)(N2CCc3c(-c4cnc(N)nc4)nc(N4CCOCC4)nc32)C1 [Example 216] — 4.1-fold higher, 0.124 nM
- CN(CC(C)(C)N1CCc2c(-c3cnc(N)nc3)nc(N3CCOCC3)nc21)S(C)(=O)=O [Example 217] — 6.4-fold higher, 0.191 nM
- CC(C)C(=O)NCC(=O)N1CC(N2CCc3c(-c4cnc(N)nc4)nc(N4CCOCC4)nc32)C1 [Example 218] — 25-fold higher, 0.751 nM
- C[C@H]1COCCN1c1nc(-c2cnc(N)nc2)c2c(n1)N(C1(C)CN(S(N)(=O)=O)C1)CC2 [Example 219] — within 1.5-fold, 0.037 nM
- CNS(=O)(=O)N1CC(C)(N2CCc3c(-c4cnc(N)nc4)nc(N4CCOC[C@@H]4C)nc32)C1 [Example 220] — 1.8-fold higher, 0.053 nM
- COCCC(=O)N1CC(N2CCc3c(-c4cnc(N)nc4)nc(N4CCOCC4)nc32)C1 [Example 221] — 43-fold higher, 1.291 nM
- C[C@H]1COCCN1c1nc(-c2cnc(N)nc2)c2c(n1)N(C1CN(S(=O)(=O)C3CNC3)C1)CC2 [Example 222] — 3.4-fold higher, 0.101 nM
- CC(=O)N1CC(S(=O)(=O)N2CC(N3CCc4c(-c5cnc(N)nc5)nc(N5CCOC[C@@H]5C)nc43)C2)C1 [Example 223] — 13-fold higher, 0.393 nM
- CC(C)S(=O)(=O)N1CC(N2CCc3c(-c4cnc(N)nc4)nc(N4CCOC[C@H]4C)nc32)C1 [Example 224] — 77-fold higher, 2.296 nM
- C[C@@H]1COCCN1c1nc(-c2cnc(N)nc2)c2c(n1)N([C@@]1(C)CCNC1)CC2 [Example 225] — 140-fold higher, 4.151 nM
- C[C@@H]1COCCN1c1nc(-c2cnc(N)nc2)c2c(n1)N([C@]1(C)CCNC1)CC2 [Example 226] — 250-fold higher, 7.437 nM
- C[C@@H]1COCCN1c1nc(-c2cnc(N)nc2)c2c(n1)N(C1(C)CCN(C(=O)OC(C)(C)C)C1)CC2 (stereo partly drawn) [Example 228] — 5.5-fold higher, 0.164 nM
- C[C@@H]1COCCN1c1nc(-c2cnc(N)nc2)c2c(n1)N([C@@]1(C)CCN(C(=O)OC(C)(C)C)C1)CC2 [Example 229] — 1.8-fold higher, 0.055 nM

For `CC(C)(C)OC(=O)N1CC[C@](C)(N2CCc3c(-c4cnc(N)nc4)nc(N4CCOCC4)nc32)C1` [Example 194], the “PI3KA_Act Ki” value was under 0.018 nM.
With `CC(C)S(=O)(=O)N1CC(C)(N2CCc3c(-c4cnc(N)nc4)nc(N4CCOC[C@@H]4C)nc32)C1` [Example 204] the “PI3KA_Act Ki” value was under 0.018 nM.
